Test results reported in ChEMBL document CHEMBL2202990, “(R)- and (S)-4-Amino-3-(trimethylsilyl)methylbutanoic acids ameliorate neuropathic pain without central nervous system-related side effects” (Bioorg Med Chem Lett, 2012).
The source made the active and inactive calls.

Experiments:
Rattus norvegicus [1] = assay: Toxicity against rat assessed as somnolence at 30 mg/kg; type: organism-based; design: dose 30 mg/kg; conditions: in vivo
Mus musculus [2] = assay: Toxicity against mouse assessed as protection against pentetrazole-induced death at 45 mg/kg; type: organism-based; design: dose 45 mg/kg; conditions: in vivo
Mus musculus [3] = assay: Toxicity against mouse assessed as protection against maximal-electroshock-induced tonic seizure at 45 mg/kg; type: organism-based; design: dose 45 mg/kg; conditions: in vivo
Mus musculus [4] = assay: Toxicity against mouse assessed as protection against maximal-electroshock-induced tonic seizure at 15 mg/kg; type: organism-based; design: dose 15 mg/kg; conditions: in vivo
Rattus norvegicus [5] = assay: Toxicity against CD rat SNL pain model assessed as hypalgesic activity on the contralateral side of paw at 20 mg/kg, po at 90 mins relative to control; type: organism-based; design: dose 20 mg/kg, route oral; conditions: in vivo, 1.5 h
Rattus norvegicus [6] = assay: Antiallodynic activity in CD rat SNL pain model assessed as increase in paw withdrawal threshold at 20 mg/kg, po measured at 90 mins; type: functional, organism-based; design: dose 20 mg/kg
Rattus norvegicus [7] = assay: Antiallodynic activity in CD rat SNL pain model assessed as increase in paw withdrawal threshold at 20 mg/kg, po measured from 30 to 180 mins; type: functional, organism-based; design: dose 20 mg/kg
Rattus norvegicus [8] = assay: Antiallodynic activity in CD rat SNL pain model assessed as increase in paw withdrawal threshold at 60 mg/kg, po measured up to 180 mins; type: functional, organism-based; design: dose 60 mg/kg
Mus musculus [9] = assay: Toxicity against mouse assessed as protection against pentetrazole-induced death at 5 mg/kg; type: organism-based; design: dose 5 mg/kg; conditions: in vivo
Mus musculus [10] = assay: Toxicity against mouse assessed as protection against pentetrazole-induced death at 15 mg/kg; type: organism-based; design: dose 15 mg/kg; conditions: in vivo
Mus musculus [11] = assay: Toxicity against mouse assessed as protection against maximal-electroshock-induced tonic seizure at 5 mg/kg; type: organism-based; design: dose 5 mg/kg; conditions: in vivo
Rattus norvegicus [12] = assay: Toxicity against CD rat SNL pain model assessed as hypalgesic activity on the contralateral side of paw at 40 mg/kg, po at 90 mins relative to control; type: organism-based; design: dose 40 mg/kg, route oral; conditions: in vivo, 1.5 h
Rattus norvegicus [13] = assay: Antiallodynic activity in CD rat SNL pain model assessed as increase in paw withdrawal threshold at 40 mg/kg, po measured from 30 to 180 mins; type: functional, organism-based; design: dose 40 mg/kg
Rattus norvegicus [14] = assay: Antiallodynic activity in CD rat SNL pain model assessed as increase in paw withdrawal threshold at 20 mg/kg, po measured after 90 mins; type: functional, organism-based; design: dose 20 mg/kg
Rattus norvegicus [15] = assay: Antiallodynic activity in CD rat SNL pain model assessed as increase in paw withdrawal threshold at 20 mg/kg, po measured from 30 to 60 mins; type: functional, organism-based; design: dose 20 mg/kg

SMILES	Activity (Rattus norvegicus [1])	Activity (Mus musculus [2])	Activity (Mus musculus [3])	Activity (Mus musculus [4])	Activity (Rattus norvegicus [5])	Activity (Rattus norvegicus [6])	Activity (Rattus norvegicus [7])	Activity (Rattus norvegicus [8])	Activity (Mus musculus [9])	Activity (Mus musculus [10])	Activity (Mus musculus [11])	Activity (Rattus norvegicus [12])	Activity (Rattus norvegicus [13])	Activity (Rattus norvegicus [14])	Activity (Rattus norvegicus [15])
CC(C)C[C@H](CN)CC(=O)O [PREGABALIN]	Toxic	Toxic	Toxic	Toxic	Toxic	Active	Active								
C[Si](C)(C)CC(CN)CC(=O)O (racemic)								Active							
C[Si](C)(C)C[C@H](CN)CC(=O)O		Non-toxic	Non-toxic	Non-toxic	Non-toxic		inactive		Non-toxic	Non-toxic	Non-toxic	Non-toxic	Active		
C[Si](C)(C)C[C@@H](CN)CC(=O)O		Non-toxic	Non-toxic	Non-toxic	Non-toxic				Non-toxic	Non-toxic	Non-toxic	Non-toxic		inactive	Active
